# Measurements from PMC4097383 (Drug and alcohol dependence, 2013).
# T1: human cardiac calsequestrin (CASQ2) (Homo sapiens, UniProt O14958)
# T1 sequence (O14958 20-399): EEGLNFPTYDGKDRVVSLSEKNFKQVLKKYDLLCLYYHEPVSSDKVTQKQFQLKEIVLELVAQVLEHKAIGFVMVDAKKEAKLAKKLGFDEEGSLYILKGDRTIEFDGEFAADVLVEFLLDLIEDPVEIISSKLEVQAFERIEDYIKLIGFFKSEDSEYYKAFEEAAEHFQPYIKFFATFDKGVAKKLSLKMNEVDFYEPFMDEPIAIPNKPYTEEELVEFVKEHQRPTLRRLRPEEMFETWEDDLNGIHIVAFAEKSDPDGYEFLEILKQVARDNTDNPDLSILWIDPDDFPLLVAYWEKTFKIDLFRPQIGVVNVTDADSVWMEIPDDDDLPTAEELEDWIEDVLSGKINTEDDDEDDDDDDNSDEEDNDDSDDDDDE
# B1: human cardiac calsequestrin (CASQ2) (natural protein)
# chain: GLNFPTYDGKDRVVSLSEKNFKQVLKKYDLLCLYYHEPVSSDKVTQKQFQLKEIVLELVAQVLEHKAIGFVMVDAKKEAKLAKKLGFDEEGSLYILKGDRTIEFDGEFAADVLVEFLLDLIEDPVEIISSKLEVQAFERIEDYIKLIGFFKSEDSEYYKAFEEAAEHFQPYIKFFATFDKGVAKKLSLKMNEVDFYEPFMDEPIAIPNKPYTEEELVEFVKEHQRPTLRRLRPEEMFETWEDDLNGIHIVAFAEKSDPDGYEFLEILKQVARDNTDNPDLSILWIDPDDFPLLVAYWEKTFKIDLFRPQIGVVNVTDADSVWMEIPDDDDLPTAEELEDWIEDVLSGKINTEDDDEDDDDDDNSDEEDNDDSDDDDDE
# Experiments:
# [1] = biological target: T1, human cardiac calsequestrin (CASQ2); assay: isothermal titration calorimetry; assay type: binding
# [2] = biological target: T1, human cardiac calsequestrin (CASQ2); assay: equilibrium dialysis and atomic absorption spectroscopy; assay type: biochemical; details: 350 μM cocaine, 1 mg/mL CASQ2, 1 h preincubation
# [3] = biological target: the molecule itself; assay: SEC-MALS
Molecule,Kd [1],% reduction in Ca2+ binding capacity at 350 μM [2],stoichiometry N [3]
COC(=O)[C@H]1[C@@H](OC(=O)c2ccccc2)C[C@@H]2CC[C@H]1N2C [cocaine],63.5 ± 2.7 µM,~ 50%,
B1,,,2
